# Legend:
# Assay type in all cases: functional
# SK-MEL-28 [1] = assay: Growth inhibition of human SK-MEL-28 cells assessed as cell growth at 10^-8 M by sulforhodamine B assay; settings: read-out: Activity
# SNB-19 = assay: Growth inhibition of human SNB19 cells assessed as cell growth at 10^-8 M by sulforhodamine B assay; settings: read-out: Activity
# U-251 [2] = assay: Growth inhibition of human U251 cells assessed as cell growth at 10^-4 M by sulforhodamine B assay; settings: read-out: Activity
# OVCAR-4 = assay: Growth inhibition of human OVCAR4 cells assessed as cell growth at 10^-7 M by sulforhodamine B assay; settings: read-out: Activity
# SK-MEL-28 [3] = assay: Growth inhibition of human SK-MEL-28 cells assessed as cell growth at 10^-4 M by sulforhodamine B assay; settings: read-out: Activity
# SN12C [4] = assay: Growth inhibition of human SN12C cells assessed as cell growth at 10^-6 M by sulforhodamine B assay; settings: read-out: Activity
# MDA-MB-468 = assay: Growth inhibition of human MDA-MB-468 cells assessed as cell growth at 10^-8 M by sulforhodamine B assay; settings: read-out: Activity
# BT-549 [5] = assay: Growth inhibition of human BT549 cells assessed as cell growth at 10^-6 M by sulforhodamine B assay; settings: read-out: Activity
# SR [6] = assay: Growth inhibition of human SR cells by sulforhodamine B assay
# HT-29 [7] = assay: Growth inhibition of human HT-29 cells assessed as cell growth at 10^-4 M by sulforhodamine B assay; settings: read-out: Activity
# SR [8] = assay: Growth inhibition of human SR cells assessed as cell growth at 10^-8 M by sulforhodamine B assay; settings: read-out: Activity
# RXF 393 = assay: Growth inhibition of human RXF393 cells assessed as cell growth at 10^-8 M by sulforhodamine B assay; settings: read-out: Activity
# NCI-H226 = assay: Growth inhibition of human NCI-H226 cells by sulforhodamine B assay
# OVCAR-8 = assay: Growth inhibition of human OVCAR8 cells assessed as cell growth at 10^-8 M by sulforhodamine B assay; settings: read-out: Activity
# Malme-3M = assay: Growth inhibition of human MALME-3M cells assessed as cell growth at 10^-8 M by sulforhodamine B assay; settings: read-out: Activity
# SK-MEL-5 = assay: Growth inhibition of human SK-MEL-5 cells assessed as cell growth at 10^-4 M by sulforhodamine B assay; settings: read-out: Activity
# BT-549 [9] = assay: Growth inhibition of human BT549 cells assessed as cell growth at 10^-8 M by sulforhodamine B assay; settings: read-out: Activity
# T47D = assay: Growth inhibition of human T47D cells by sulforhodamine B assay
# MCF7 = assay: Growth inhibition of human MCF7 cells assessed as cell growth at 10^-8 M by sulforhodamine B assay; settings: read-out: Activity
# SK-MEL-28 [10] = assay: Growth inhibition of human SK-MEL-28 cells by sulforhodamine B assay
# [11] = Growth inhibition of human Hs 578T cells assessed as cell growth at 10^-8 M by sulforhodamine B assay; settings: read-out: Activity
# HCT-15 [12] = assay: Growth inhibition of human HCT15 cells assessed as cell growth at 10^-6 M by sulforhodamine B assay; settings: read-out: Activity
# OVCAR-5 = assay: Growth inhibition of human OVCAR5 cells assessed as cell growth at 10^-8 M by sulforhodamine B assay; settings: read-out: Activity
# RPMI-8226 = assay: Growth inhibition of human RPMI8226 cells assessed as cell growth at 10^-4 M by sulforhodamine B assay; settings: read-out: Activity
# HOP-92 = assay: Growth inhibition of human HOP92 cells assessed as cell growth at 10^-7 M by sulforhodamine B assay; settings: read-out: Activity
# HCT-15 [13] = assay: Growth inhibition of human HCT15 cells by sulforhodamine B assay
# SW-620 = assay: Growth inhibition of human SW620 cells assessed as cell growth at 10^-8 M by sulforhodamine B assay; settings: read-out: Activity
# NCI-H522 [14] = assay: Growth inhibition of human NCI-H522 cells assessed as cell growth at 10^-6 M by sulforhodamine B assay; settings: read-out: Activity
# HT-29 [15] = assay: Growth inhibition of human HT-29 cells assessed as cell growth at 10^-7 M by sulforhodamine B assay; settings: read-out: Activity
# NCI-H522 [16] = assay: Growth inhibition of human NCI-H522 cells by sulforhodamine B assay
# [17] = Growth inhibition of human HCC2998 cells assessed as cell growth at 10^-6 M by sulforhodamine B assay; settings: HCC 2998, read-out: Activity
# MOLT-4 = assay: Growth inhibition of human MOLT4 cells assessed as cell growth at 10^-6 M by sulforhodamine B assay; settings: read-out: Activity
# SK-OV-3 = assay: Growth inhibition of human SKOV3 cells assessed as cell growth at 10^-7 M by sulforhodamine B assay; settings: read-out: Activity
# HL-60(TB) = assay: Growth inhibition of human HL-60(TB) cells assessed as cell growth at 10^-4 M by sulforhodamine B assay; settings: read-out: Activity
# MDA-MB-435 = assay: Growth inhibition of human MDA-MB-435 cells by sulforhodamine B assay
# TK-10 = assay: Growth inhibition of human TK10 cells assessed as cell growth at 10^-4 M by sulforhodamine B assay; settings: read-out: Activity
# SF-295 = assay: Growth inhibition of human SF295 cells assessed as cell growth at 10^-7 M by sulforhodamine B assay; settings: read-out: Activity
# SN12C [18] = assay: Growth inhibition of human SN12C cells assessed as cell growth at 10^-4 M by sulforhodamine B assay; settings: read-out: Activity
# OVCAR-3 = assay: Growth inhibition of human OVCAR3 cells assessed as cell growth at 10^-4 M by sulforhodamine B assay; settings: read-out: Activity
# U-251 [19] = assay: Growth inhibition of human U251 cells assessed as cell growth at 10^-8 M by sulforhodamine B assay; settings: read-out: Activity
# HCT-116 = assay: Growth inhibition of human HCT116 cells assessed as cell growth at 10^-6 M by sulforhodamine B assay; settings: read-out: Activity
# [20] = read-out: LC50 (the source's name)
# [21] = read-out: pLC50 (the source's name) (converted)
structure (smiles),measurement,setting,value
C/C=C(/C)C(=O)O[C@@H]1CC(C)(C)C[C@H]2C3=CC[C@@H]4[C@@]5(C)CC[C@H](O)C(C)(C)[C@@H]5CC[C@@]4(C)[C@]3(C)CC[C@@]12C(=O)O [Reduced Lantadene A],growth at 0.01 µM,SK-MEL-28 [1],90%
same,growth at 0.01 µM,SNB-19,90%
same,growth at 100 µM,U-251 [2],-52%
same,growth at 0.1 µM,OVCAR-4,99%
same,growth at 100 µM,SK-MEL-28 [3],-41%
same,growth at 1 µM,SN12C [4],83%
same,growth at 0.01 µM,MDA-MB-468,93%
same,growth at 1 µM,BT-549 [5],95%
same,GI50,SR [6]; read-out: GI50,2.14 µM
same,CC50,SR [6]; [20],> 100 µM
same,TGI,SR [6]; read-out: TGI,5.63 µM
same,GI50,SR [6]; read-out: pGI50 (converted),2.14 µM
same,CC50,SR [6]; [21],> 100 µM
same,TGI,SR [6]; read-out: pTGI (converted),5.62 µM
same,growth at 100 µM,HT-29 [7],-64%
same,growth at 0.01 µM,SR [8],83%
same,growth at 0.01 µM,RXF 393,93%
same,GI50,NCI-H226; read-out: GI50,1.71 µM
same,LC50,NCI-H226; read-out: LC50,8.43 µM
same,TGI,NCI-H226; read-out: TGI,3.79 µM
same,GI50,NCI-H226; read-out: pGI50 (converted),1.7 µM
same,LC50,NCI-H226; read-out: pLC50 (converted),8.51 µM
same,TGI,NCI-H226; read-out: pTGI (converted),3.8 µM
same,growth at 0.01 µM,OVCAR-8,98%
same,growth at 0.01 µM,Malme-3M,94%
same,growth at 100 µM,SK-MEL-5,-63%
same,growth at 0.01 µM,BT-549 [9],99%
same,GI50,T47D; read-out: GI50,11.8 µM
same,CC50,T47D; [20],> 100 µM
same,TGI,T47D; read-out: TGI,41.1 µM
same,GI50,T47D; read-out: pGI50 (converted),11.7 µM
same,CC50,T47D; [21],> 100 µM
same,TGI,T47D; read-out: pTGI (converted),40.7 µM
same,growth at 0.01 µM,MCF7,95%
same,GI50,SK-MEL-28 [10]; read-out: GI50,1.9 µM
same,TGI,SK-MEL-28 [10]; read-out: TGI,4.27 µM
same,GI50,SK-MEL-28 [10]; read-out: pGI50 (converted),1.91 µM
same,TGI,SK-MEL-28 [10]; read-out: pTGI (converted),4.27 µM
same,growth at 0.01 µM,[11],94%
same,growth at 1 µM,HCT-15 [12],82%
same,growth at 0.01 µM,OVCAR-5,100%
same,growth at 100 µM,RPMI-8226,-15%
same,growth at 0.1 µM,HOP-92,76%
same,GI50,HCT-15 [13]; read-out: GI50,2.58 µM
same,LC50 (50% lethal concentration),HCT-15 [13]; read-out: LC50,62.6 µM
same,TGI,HCT-15 [13]; read-out: TGI,11.5 µM
same,GI50,HCT-15 [13]; read-out: pGI50 (converted),2.57 µM
same,LC50 (50% lethal concentration),HCT-15 [13]; read-out: pLC50 (converted),63.1 µM
same,TGI,HCT-15 [13]; read-out: pTGI (converted),11.5 µM
same,growth at 0.01 µM,SW-620,99%
same,growth at 1 µM,NCI-H522 [14],93%
same,growth at 0.1 µM,HT-29 [15],108%
same,GI50,NCI-H522 [16]; read-out: GI50,2.18 µM
same,CC50,NCI-H522 [16]; [20],32.4 µM
same,TGI,NCI-H522 [16]; read-out: TGI,5.42 µM
same,GI50,NCI-H522 [16]; read-out: pGI50 (converted),2.19 µM
same,CC50,NCI-H522 [16]; [21],32.4 µM
same,TGI,NCI-H522 [16]; read-out: pTGI (converted),5.37 µM
same,growth at 1 µM,[17],101%
same,growth at 1 µM,MOLT-4,89%
same,growth at 0.1 µM,SK-OV-3,102%
same,growth at 100 µM,HL-60(TB),-36%
same,GI50,MDA-MB-435; read-out: GI50,2.21 µM
same,CC50,MDA-MB-435; [20],> 100 µM
same,TGI,MDA-MB-435; read-out: TGI,5.9 µM
same,GI50,MDA-MB-435; read-out: pGI50 (converted),2.19 µM
same,CC50,MDA-MB-435; [21],> 100 µM
same,TGI,MDA-MB-435; read-out: pTGI (converted),5.89 µM
same,growth at 100 µM,TK-10,-69%
same,growth at 0.1 µM,SF-295,90%
same,growth at 100 µM,SN12C [18],-51%
same,growth at 100 µM,OVCAR-3,-48%
same,growth at 0.01 µM,U-251 [19],96%
same,growth at 1 µM,HCT-116,82%
